The nature of data set [1]: Efflux ratio of permeability from basolateral to apical side over apical to basolateral side in human Caco-2 cells. It is filed as ADME, cell-based.
A short description of data set [2]: Octanol/buffer distribution coefficient, logD of the compound at pH 7.4. It is filed as physicochemical.
Data set [3] in a line: Permeability of the compound across apical to basolateral side in human Caco-2 cells. It is filed as ADME, cell-based. Conditions: read-out: permeability. Background: Caco-2 cells form a polarised layer with tight junctions and transporters.
Data set [4] can be described thus: Intrinsic clearance in human microsomes. It is filed as ADME, Microsome.
In another data set the target is Cytochrome P450 3A4 (Homo sapiens, UniProt P08684). Kind of data set: Inhibition of CYP3A4 (unknown origin). It is filed as ADME.
The nature of data set [5]: Plasma protein binding in human. It is filed as ADME, cell-free. The conditions noted are these: read-out: PPB (converted).
Another data set addresses Wee1-like protein kinase (Homo sapiens, UniProt P30291).
Data set [6] is described as follows: Permeability of the compound across basolateral to apical side in human Caco-2 cells. It is filed as ADME, cell-based. Conditions: read-out: permeability.
Another data set deals with NCI-H23. The data set can be described thus: Antiproliferative activity against human NCI-H23 cells assessed as reduction in cell viability after 4 days by CellTiter-Glo assay. The conditions noted are these: Homo sapiens, NCI-H23, 96 h. For orientation: Cellular ATP, detected with luciferase, serves as a proxy for viable cell number.
Data set [7] is described as follows: AUC(0 to 24 hrs) in mouse at 60 mg/kg, po. Details: time < 24 hr, route oral, dose 60 mg/kg. The conditions noted are these: in vivo. It is filed as ADME, organism-based.
A short description of data set [8]: AUC(0 to 24 hrs) in mouse at 10 mg/kg, po. Conditions: in vivo, 24 h. Details: time < 24 hr, route oral, dose 10 mg/kg. It is filed as ADME, organism-based.
The subject of data set [9] is A-427. The data set can be described thus: Antiproliferative activity against human A-427 cells assessed as reduction in cell viability after 3 days by CellTiter-Glo assay. It is filed as functional, cell-based. Conditions: A-427, 72 h.
Data set [10] in a line: AUC in mouse plasma at 80 mg/kg, po administered once daily for 28 days. It is filed as ADME, organism-based. More on the design: time 28 day, dose 80 mg/kg.
Data set [11] has as its system A-427. Kind of data set: Antitumor activity against human A-427 cells xenografted in SCID mouse assessed as reduction in tumor growth at 80 mg/kg, po administered once daily for 28 days and measured twice per weeks. Conditions: time 28.0 day. It is filed as functional, organism-based. (Xenograft models place foreign cells or tissue in a host animal.)
The target of data set [12] is T1, Mitogen-activated protein kinase kinase kinase 19 (Homo sapiens) (UniProt Q56UN5).
T1 sequence (whole entry): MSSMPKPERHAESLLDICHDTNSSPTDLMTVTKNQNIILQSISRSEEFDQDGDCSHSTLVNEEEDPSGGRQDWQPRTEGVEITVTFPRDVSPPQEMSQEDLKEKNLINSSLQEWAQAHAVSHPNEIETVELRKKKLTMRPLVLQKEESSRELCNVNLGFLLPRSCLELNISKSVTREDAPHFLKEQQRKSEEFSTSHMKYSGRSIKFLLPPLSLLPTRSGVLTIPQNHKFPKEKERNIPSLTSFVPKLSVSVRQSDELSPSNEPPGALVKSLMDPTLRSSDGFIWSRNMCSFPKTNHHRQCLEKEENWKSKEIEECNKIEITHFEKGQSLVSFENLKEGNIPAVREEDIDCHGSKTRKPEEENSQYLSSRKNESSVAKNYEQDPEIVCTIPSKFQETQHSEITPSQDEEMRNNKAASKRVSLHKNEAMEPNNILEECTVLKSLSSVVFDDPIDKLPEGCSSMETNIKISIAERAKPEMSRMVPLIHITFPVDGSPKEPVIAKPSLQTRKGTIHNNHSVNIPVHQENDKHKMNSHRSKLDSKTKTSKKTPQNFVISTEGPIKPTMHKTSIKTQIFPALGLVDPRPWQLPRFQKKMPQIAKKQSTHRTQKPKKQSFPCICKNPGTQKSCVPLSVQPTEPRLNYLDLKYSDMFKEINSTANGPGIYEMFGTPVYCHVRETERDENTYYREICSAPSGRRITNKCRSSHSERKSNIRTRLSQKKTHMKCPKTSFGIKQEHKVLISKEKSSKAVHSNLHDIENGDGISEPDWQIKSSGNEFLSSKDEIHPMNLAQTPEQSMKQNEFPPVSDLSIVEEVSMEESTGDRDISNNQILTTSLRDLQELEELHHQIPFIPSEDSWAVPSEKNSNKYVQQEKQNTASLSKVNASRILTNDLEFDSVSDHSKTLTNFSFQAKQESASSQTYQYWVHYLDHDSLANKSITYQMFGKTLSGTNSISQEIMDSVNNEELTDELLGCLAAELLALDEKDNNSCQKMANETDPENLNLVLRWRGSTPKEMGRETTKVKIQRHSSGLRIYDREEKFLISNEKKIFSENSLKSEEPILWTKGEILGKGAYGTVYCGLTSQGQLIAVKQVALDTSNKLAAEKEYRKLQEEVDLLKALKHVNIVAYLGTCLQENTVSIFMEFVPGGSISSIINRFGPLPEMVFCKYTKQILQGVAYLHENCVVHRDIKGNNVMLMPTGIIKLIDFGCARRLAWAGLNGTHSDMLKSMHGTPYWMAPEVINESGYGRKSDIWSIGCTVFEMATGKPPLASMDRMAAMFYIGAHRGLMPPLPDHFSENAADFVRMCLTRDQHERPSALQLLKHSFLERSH
The data set can be described thus: Inhibition of YSK4 (unknown origin) at 1 uM relative to control.

Data set [13] has as its target T2, Cyclin-G-associated kinase (Homo sapiens) (UniProt O14976).
T2 sequence (whole entry): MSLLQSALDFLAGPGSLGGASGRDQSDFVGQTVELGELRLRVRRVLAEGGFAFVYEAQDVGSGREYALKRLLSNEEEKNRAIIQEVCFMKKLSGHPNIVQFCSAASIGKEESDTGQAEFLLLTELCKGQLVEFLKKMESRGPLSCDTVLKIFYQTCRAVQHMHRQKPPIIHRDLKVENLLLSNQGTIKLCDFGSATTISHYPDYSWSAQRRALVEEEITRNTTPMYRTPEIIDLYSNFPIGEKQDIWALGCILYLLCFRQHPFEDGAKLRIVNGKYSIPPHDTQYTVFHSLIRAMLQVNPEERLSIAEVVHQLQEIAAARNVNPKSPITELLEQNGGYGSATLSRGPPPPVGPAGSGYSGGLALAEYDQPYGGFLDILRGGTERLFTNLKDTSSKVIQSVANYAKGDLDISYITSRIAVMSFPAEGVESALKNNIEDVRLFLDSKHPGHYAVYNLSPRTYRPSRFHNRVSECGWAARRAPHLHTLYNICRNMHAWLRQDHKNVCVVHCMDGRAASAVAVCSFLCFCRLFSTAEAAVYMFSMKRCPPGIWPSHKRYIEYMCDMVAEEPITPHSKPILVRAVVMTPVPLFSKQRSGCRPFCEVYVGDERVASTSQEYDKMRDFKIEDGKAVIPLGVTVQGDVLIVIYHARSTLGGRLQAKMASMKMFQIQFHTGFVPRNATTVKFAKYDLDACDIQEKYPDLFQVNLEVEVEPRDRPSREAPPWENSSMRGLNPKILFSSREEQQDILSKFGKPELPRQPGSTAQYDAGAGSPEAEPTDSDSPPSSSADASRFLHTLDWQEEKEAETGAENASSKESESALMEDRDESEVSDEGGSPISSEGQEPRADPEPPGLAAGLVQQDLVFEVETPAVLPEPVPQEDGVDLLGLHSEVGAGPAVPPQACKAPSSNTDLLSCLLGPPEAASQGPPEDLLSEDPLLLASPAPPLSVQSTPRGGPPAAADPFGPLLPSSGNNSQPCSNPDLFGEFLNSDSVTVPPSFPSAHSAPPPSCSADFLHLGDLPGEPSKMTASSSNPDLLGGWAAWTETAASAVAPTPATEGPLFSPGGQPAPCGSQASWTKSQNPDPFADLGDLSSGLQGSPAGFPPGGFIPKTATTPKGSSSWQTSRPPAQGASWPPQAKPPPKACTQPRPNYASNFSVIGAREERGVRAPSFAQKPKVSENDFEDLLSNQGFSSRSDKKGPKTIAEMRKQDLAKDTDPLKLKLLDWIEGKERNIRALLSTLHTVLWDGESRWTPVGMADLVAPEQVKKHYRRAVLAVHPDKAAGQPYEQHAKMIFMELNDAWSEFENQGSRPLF
Kind of data set: Inhibition of GAK (unknown origin) at 1 uM relative to control.

The nature of data set [14]: Plasma protein binding in mouse. It is filed as ADME, cell-free. The conditions noted are these: read-out: PPB (converted).
A short description of data set [15]: Intrinsic clearance in mouse microsomes. It is filed as ADME, Microsome.
The target in data set [16] is Serine/threonine-protein kinase PLK2 (Homo sapiens, UniProt Q9NYY3). Kind of data set: Inhibition of PLK2 (unknown origin) at 1 uM relative to control.
Data set [17] addresses Serine/threonine-protein kinase PLK3 (Homo sapiens, UniProt Q9H4B4). The data set can be described thus: Inhibition of PLK3 (unknown origin) at 1 uM relative to control.
In data set [18] the target is Epidermal growth factor receptor (Homo sapiens) (UniProt P00533). Kind of data set: Inhibition of EGFR (unknown origin) at 1 uM relative to control.
Data set [19] can be described thus: AUC(0 to 24 hrs) in rat at 60 mg/kg, po. It is filed as ADME, organism-based. More on the design: time < 24 hr, route oral, dose 60 mg/kg. Conditions: in vivo.

The source made the active and inactive calls. No cut-off for these calls is given here.

Chain of Wee1-like protein kinase (P30291 whole entry): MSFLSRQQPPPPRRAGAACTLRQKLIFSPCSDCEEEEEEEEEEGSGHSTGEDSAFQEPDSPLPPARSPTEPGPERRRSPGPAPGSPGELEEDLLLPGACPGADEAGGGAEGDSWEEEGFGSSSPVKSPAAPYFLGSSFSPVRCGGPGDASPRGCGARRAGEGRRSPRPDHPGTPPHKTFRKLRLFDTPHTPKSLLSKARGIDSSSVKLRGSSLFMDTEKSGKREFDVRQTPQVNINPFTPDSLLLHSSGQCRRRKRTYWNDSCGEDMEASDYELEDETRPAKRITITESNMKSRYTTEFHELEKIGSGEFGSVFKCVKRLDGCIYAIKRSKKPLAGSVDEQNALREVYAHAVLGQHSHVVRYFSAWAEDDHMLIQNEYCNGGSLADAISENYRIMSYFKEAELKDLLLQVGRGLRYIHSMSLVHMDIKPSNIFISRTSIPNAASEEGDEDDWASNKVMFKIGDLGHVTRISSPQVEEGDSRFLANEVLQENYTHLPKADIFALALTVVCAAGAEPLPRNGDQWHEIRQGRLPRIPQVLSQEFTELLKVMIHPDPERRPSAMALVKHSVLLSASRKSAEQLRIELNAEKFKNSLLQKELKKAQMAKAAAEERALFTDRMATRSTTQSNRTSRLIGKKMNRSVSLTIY
Chain of Cytochrome P450 3A4 (P08684 whole entry): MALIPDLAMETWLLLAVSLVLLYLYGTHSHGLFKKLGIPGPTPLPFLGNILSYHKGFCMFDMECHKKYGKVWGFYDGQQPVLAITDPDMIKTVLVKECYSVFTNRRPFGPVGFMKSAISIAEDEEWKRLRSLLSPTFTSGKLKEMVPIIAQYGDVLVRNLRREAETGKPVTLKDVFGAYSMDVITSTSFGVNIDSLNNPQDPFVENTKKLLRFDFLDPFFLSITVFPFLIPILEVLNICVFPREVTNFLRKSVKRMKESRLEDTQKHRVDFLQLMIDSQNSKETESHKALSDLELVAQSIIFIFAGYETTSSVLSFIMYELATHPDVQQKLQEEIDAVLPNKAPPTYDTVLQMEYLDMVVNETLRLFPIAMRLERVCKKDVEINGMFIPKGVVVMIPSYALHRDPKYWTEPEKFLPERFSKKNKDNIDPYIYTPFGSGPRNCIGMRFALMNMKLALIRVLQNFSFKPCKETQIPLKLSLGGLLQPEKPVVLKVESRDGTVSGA
Chain of Serine/threonine-protein kinase PLK3 (Q9H4B4 whole entry, looked up): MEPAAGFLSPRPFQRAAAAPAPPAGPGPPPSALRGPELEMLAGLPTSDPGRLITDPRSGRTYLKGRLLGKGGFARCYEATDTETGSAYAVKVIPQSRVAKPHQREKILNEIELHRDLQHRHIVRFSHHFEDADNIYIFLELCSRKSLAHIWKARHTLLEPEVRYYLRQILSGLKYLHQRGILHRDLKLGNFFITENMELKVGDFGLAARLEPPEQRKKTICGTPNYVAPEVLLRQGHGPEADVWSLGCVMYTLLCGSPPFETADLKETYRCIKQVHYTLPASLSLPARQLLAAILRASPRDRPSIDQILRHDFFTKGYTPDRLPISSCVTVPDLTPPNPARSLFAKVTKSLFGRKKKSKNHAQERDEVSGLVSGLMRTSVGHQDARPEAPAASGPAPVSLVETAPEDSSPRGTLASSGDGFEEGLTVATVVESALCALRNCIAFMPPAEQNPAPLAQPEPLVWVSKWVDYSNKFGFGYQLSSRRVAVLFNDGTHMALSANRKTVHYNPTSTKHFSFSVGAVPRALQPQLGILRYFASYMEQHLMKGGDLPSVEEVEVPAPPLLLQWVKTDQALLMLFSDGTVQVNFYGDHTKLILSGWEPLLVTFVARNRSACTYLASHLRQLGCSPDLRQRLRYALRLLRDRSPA
Chain of Serine/threonine-protein kinase PLK2 (Q9NYY3 whole entry, looked up): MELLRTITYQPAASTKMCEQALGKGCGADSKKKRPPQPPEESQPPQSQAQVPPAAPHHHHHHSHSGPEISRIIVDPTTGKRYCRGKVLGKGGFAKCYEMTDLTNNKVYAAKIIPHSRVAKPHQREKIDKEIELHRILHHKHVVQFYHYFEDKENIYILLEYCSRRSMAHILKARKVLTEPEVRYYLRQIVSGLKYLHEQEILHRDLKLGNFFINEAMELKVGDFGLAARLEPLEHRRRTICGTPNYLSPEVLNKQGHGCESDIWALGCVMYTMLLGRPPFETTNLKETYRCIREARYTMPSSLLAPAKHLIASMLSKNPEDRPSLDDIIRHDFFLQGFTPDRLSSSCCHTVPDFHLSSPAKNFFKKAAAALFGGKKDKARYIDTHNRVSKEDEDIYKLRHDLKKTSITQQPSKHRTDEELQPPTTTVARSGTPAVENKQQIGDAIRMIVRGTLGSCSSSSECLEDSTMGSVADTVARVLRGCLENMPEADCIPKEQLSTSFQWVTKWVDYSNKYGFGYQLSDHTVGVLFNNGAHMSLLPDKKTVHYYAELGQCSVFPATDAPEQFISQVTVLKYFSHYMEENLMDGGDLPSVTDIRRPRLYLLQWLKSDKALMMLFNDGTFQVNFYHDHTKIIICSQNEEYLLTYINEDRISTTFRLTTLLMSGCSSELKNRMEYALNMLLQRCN
Chain of Epidermal growth factor receptor (Homo sapiens) (P00533 whole entry): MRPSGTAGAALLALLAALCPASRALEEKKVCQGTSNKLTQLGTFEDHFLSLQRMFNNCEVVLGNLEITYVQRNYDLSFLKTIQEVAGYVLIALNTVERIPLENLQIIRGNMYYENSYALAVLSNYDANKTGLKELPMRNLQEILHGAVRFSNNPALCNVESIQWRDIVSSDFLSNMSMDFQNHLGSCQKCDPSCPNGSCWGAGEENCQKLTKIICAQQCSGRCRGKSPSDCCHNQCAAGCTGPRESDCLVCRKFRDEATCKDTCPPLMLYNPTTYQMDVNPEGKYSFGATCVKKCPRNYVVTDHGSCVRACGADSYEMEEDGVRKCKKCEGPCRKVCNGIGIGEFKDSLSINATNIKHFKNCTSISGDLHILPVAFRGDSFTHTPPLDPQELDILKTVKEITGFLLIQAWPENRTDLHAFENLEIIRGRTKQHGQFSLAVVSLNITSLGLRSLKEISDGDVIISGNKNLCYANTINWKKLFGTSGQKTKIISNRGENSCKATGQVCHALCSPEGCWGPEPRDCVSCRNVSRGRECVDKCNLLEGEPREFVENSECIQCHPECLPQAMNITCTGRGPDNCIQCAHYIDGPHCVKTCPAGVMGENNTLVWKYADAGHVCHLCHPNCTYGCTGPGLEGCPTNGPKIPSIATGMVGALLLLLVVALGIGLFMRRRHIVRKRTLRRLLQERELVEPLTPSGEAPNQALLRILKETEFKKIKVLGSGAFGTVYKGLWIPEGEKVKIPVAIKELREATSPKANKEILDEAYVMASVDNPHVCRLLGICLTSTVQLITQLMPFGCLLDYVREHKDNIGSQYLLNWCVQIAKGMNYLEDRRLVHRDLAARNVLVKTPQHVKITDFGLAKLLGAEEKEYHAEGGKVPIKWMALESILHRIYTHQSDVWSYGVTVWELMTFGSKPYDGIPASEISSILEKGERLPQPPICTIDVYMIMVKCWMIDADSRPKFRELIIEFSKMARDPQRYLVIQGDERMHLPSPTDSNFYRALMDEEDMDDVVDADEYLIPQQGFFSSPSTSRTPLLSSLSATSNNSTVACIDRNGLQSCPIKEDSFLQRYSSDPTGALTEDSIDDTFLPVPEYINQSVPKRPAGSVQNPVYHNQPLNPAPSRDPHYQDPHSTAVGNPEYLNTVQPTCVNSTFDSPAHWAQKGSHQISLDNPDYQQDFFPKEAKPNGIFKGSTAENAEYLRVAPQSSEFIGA
Description for Wee1-like protein kinase: Displacement of Alexa Fluor labelled kinase tracer178 from WEE1 (unknown origin) incubated for 60 mins by FRET assay

On to `Cc1cn(-c2c(Cl)cccc2Cl)c(=O)c2cnc(Nc3ccc(N4CCN(C)CC4)cc3)nc12`, for which the efflux ratio in data set [1] was found to be 1.1. In data set [2], this molecule had a logD of 3.4. Besides, in data set [3], the Papp A→B stood at 1.5 ×10⁻⁶ cm/s. Moreover, in data set [4], the intrinsic metabolic clearance (CLint scaled) amounted to 39 mL/min/kg. The half-maximal inhibitory concentration (IC50) came out at 4500 nM against Cytochrome P450 3A4, 2 nM on Wee1-like protein kinase and 226 nM with NCI-H23. Also, the fraction unbound in data set [5] is 0.027. Moreover, the Papp B→A in data set [6] was found to be 1.8 ×10⁻⁶ cm/s.

In data set [7], `C=CCn1c(=O)c2cnc(Nc3ccc(N4CCN(C)CC4)cc3)nc2n1-c1cccc(C(C)(C)O)n1` [ADAVOSERTIB] registered an AUC(0-t) at 24 h of 22 µM·h. The AUC in data set [8] amounted to 0.8 µM·h. In data set [2], this molecule registered a logD of 2.2. Also, in [3], the Papp A→B was 3.4 ×10⁻⁶ cm/s. Also, the IC50 was determined as 78 nM with A-427 [9] and 122 nM in the data set with NCI-H23. This molecule yielded an intrinsic clearance (CLint scaled) in [4] of 34 mL/min/kg. Besides, the AUC at 672 h in data set [10] came out at 44 µM·h. The fraction unbound in [5] was 0.361. Further, the Papp B→A in [6] stood at 42 ×10⁻⁶ cm/s. For the same molecule, the result in the data set with A-427 [11] was Active.

With `C=CCn1c(=O)c2cnc(Nc3ccc(N4CCN(C)CC4)cc3)nc2n1-c1ccc2c(n1)[C@](C)(O)CC2`, the AUC(0-t) at 24 h was 27 µM·h in [7] and 35 µM·h in data set [19]. In addition, in data set [2], the logD came to 2. Also, the inhibition was > 90% in data set [12]; 75% in data set [13]; > 90% in [16]; 75% in data set [17]; > 90% in data set [18]. The fraction unbound in [14] was 0.27; in [5], 0.47. Further, the CLint scaled in [4] is 20 mL/min/kg; in [15], < 38 mL/min/kg. In addition, the IC50 on Wee1-like protein kinase stood at 4.8 nM; in the data set on NCI-H23, 317 nM.

What is called efflux ratio is the permeability from basolateral to apical divided by that in the opposite direction, in the common usage. A word on the logD: it is lipophilicity at a set pH, counting ionised and neutral species. A low value points to lower lipophilicity. The term CLint scaled denotes the rate of metabolic loss divided by the concentration. Usually IC50 stands for the concentration that inhibits the measured activity by half. What is called AUC(0-t) is the area under the concentration-time curve up to a stated or last time point. The term AUC denotes the area under the concentration-time curve, a measure of exposure. In general, inhibition refers to the drop in the measured response relative to a control, in per cent. High values mean a strong effect, low ones a weak effect.

Values taken from ChEMBL document CHEMBL4842364 (J Med Chem, 2021).
